In PMC11324046, “Second-generation piperazine derivatives as promising radiation countermeasures” (RSC Medicinal Chemistry, 2024):

System: not listed separately
Assay: WST-1 proliferation assay, MOLT-4
Type: cell-based
Settings: human, MOLT-4 cells (acute lymphoblastic leukemia), vs 0.1% DMSO control = 100%, mean ± standard deviation
Method: (§1) A thorough analysis of antiproliferative activity was performed across various cell culture types representing different histotypes: leukemia (Jurkat, MOLT-4), lung adenocarcinoma (A549), colorectal adenocarcinoma (HT-29), pancreatic carcinoma (PANC-1), breast adenocarcinoma (MCF-7), osteosarcoma (SAOS-2), and one non-cancerous cell line (fetal lung fibroblasts MRC-5). The cell lines were exposed to the newly synthesized compounds at a concentration of 100 μM for 48 h in a single-dose treatment. Changes in cell proliferation compared to the vehicle 0.1% dimethyl sulfoxide (DMSO) control were determined using the WST-1 assay, which is based on mitochondrial dehydrogenase metabolic activities. […] The overall cytotoxic activity of each compound was expressed as growth percent (GP) – the mean of the proliferation of all cell lines treated with the same compound.
(§2) Selected human tumor and non-tumor cell lines Jurkat (acute T-cell leukemia), MOLT-4 (acute lymphoblastic leukemia), A549 (lung carcinoma), HT-29 (colorectal adenocarcinoma), PANC-1 (pancreas epithelioid carcinoma), MCF-7 (breast adenocarcinoma), SAOS-2 (osteosarcoma) and MRC-5 (normal lung fibroblasts) were purchased from either American Type Culture Collection (ATCC; VA, USA) or Sigma-Aldrich (St. Louis, MO, USA) and cultured according to the provider's culture method guidelines. All cell lines were maintained at 37 °C in a humidified 5% carbon dioxide and 95% air incubator. Cells in the maximum range of either 10 passages for the adherent cell lines (A549, HT-29, PANC-1, MCF-7, SAOS-2, and MRC-5), or 20 passages for suspension cell lines (Jurkat, MOLT-4,) and in an exponential growth phase were used for this study. Screening of the antiproliferative effect and growth percent calculation were conducted as follows: each cell line was seeded at previously established optimal density (1–50 × 10^3 cells per well) in a 96-well plate (TPP, Trasadingen, Switzerland) and cells were allowed to settle overnight. Cells were treated for 48 h with compounds at a final concentration of 100 μM. At the end of the cultivation period, the WST-1 proliferation assay (Roche, Basel, Switzerland) was performed according to the manufacturer's protocol. The absorbance was measured at 440 nm using a Tecan Spark multimode microplate reader (Tecan, Mannedorf, Switzerland). Each value is the mean of three independent experiments and represents the percentage of proliferation (100% cell proliferation for 0.1% DMSO mock-treated control cells). The GP value was calculated for each compound tested. GP represents the mean of the percentage proliferation decrease of all cell lines treated with the same compound.

Row | Structure (SMILES) | viability at 48 h, 100 µM
1 | COc1cc([N+](=O)[O-])ccc1OCC(O)CN1CCN(CCO)CC1 (stereo not drawn) [Compound 1, 1-(4-(2-Hydroxyethyl)piperazin-1-yl)-3-(2-methoxy-4-nitrophenoxy)propan-2-ol] | 92 ± 8%
2 | COc1ccc(OCC(O)CN2CCN(CCO)CC2)c([N+](=O)[O-])c1 (stereo not drawn) [Compound 2, 1-(4-(2-Hydroxyethyl)piperazin-1-yl)-3-(4-methoxy-2-nitrophenoxy)propan-2-ol] | 90 ± 7%
3 | O=[N+]([O-])c1ccc(OCC(O)CN2CCN(CCO)CC2)c(F)c1 (stereo not drawn) [Compound 3, 1-(4-(2-Hydroxyethyl)piperazin-1-yl)-3-(2-fluoro-4-nitrophenoxy)propan-2-ol] | 84 ± 11%

System: not listed separately
Assay: WST-1 proliferation assay, PANC-1
Type: cell-based
Settings: human, PANC-1 cells (pancreas epithelioid carcinoma), vs 0.1% DMSO control = 100%, mean ± standard deviation
Method: as §1, §2

Row | Structure (SMILES) | viability at 48 h, 100 µM
4 | COc1cc([N+](=O)[O-])ccc1OCC(O)CN1CCN(CCO)CC1 (stereo not drawn) [Compound 1, 1-(4-(2-Hydroxyethyl)piperazin-1-yl)-3-(2-methoxy-4-nitrophenoxy)propan-2-ol] | 108 ± 3%
5 | COc1ccc(OCC(O)CN2CCN(CCO)CC2)c([N+](=O)[O-])c1 (stereo not drawn) [Compound 2, 1-(4-(2-Hydroxyethyl)piperazin-1-yl)-3-(4-methoxy-2-nitrophenoxy)propan-2-ol] | 104 ± 3%
6 | O=[N+]([O-])c1ccc(OCC(O)CN2CCN(CCO)CC2)c(F)c1 (stereo not drawn) [Compound 3, 1-(4-(2-Hydroxyethyl)piperazin-1-yl)-3-(2-fluoro-4-nitrophenoxy)propan-2-ol] | 90 ± 4%

System: not listed separately
Assay: in vitro
Settings: male, human
Method: (§3) To represent the overall inhibitory activity of each compound, viability was calculated as the mean of at least three independent measurements. The purpose was to determine the optimal non-toxic concentration for subsequent use in radioprotection tests.
(§4) Whole blood from a healthy donor was diluted 1 : 1 with Dulbecco's phosphate buffered saline (Sigma-Aldrich, St. Louis, MO, USA). The diluted blood was slowly and carefully pipetted onto an equal volume of Histopaque®-1077 (Sigma-Aldrich, St. Louis, MO, USA). The entire process was carried out at room temperature. Subsequently, centrifugation was performed at 700 × g with the slowest acceleration and deceleration for 20 min at 20 °C. The resulting PBMCs ring was aspirated and centrifuged at 450 × g for 10 min at 20 °C with normal acceleration and deceleration. The cells were washed twice with RPMI 1640 medium with GlutaMAX (Gibco by Thermo Fisher Scientific, Waltham, MA, USA). After the second wash and centrifugation, the cells were diluted with cultivation medium RPMI 1640 with GlutaMAX supplemented with 20% inactivated fetal bovine serum (both Gibco by Thermo Fisher Scientific, Waltham, MA, USA) and 1% antibiotic solution of penicillin, 10 000 IU ml^−1 and streptomycin, 10 mg ml^−1 (Sigma-Aldrich, St. Louis, MO, USA). At the end, the cells were counted using Türk's solution.
(§5) PBMCs were plated into 96-well plates at a cell density of approximately 5 × 10^4 cells per well in a volume of 100 μl. Cells were treated with tested compounds in concentrations of 10, 20, 50, 100, 200, 500, and 1000 μM to determine the optimal non-toxic concentration for each. Cells were incubated for 48 h in a humidified atmosphere with 5% CO2 at 37 °C. 20 μl of MTS – CellTiter 96® AQueous One Solution Cell Proliferation Assay (Promega, Madison, WI, USA) was added to each well 4 h before spectrometric analysis. Cell viability was then determined by measuring absorbance at 490 nm using the Synergy H1 instrument by BioTek. The absorbance of the cell-free culture medium was used as a blank and subtracted from the absorbance readings obtained during the experiment. The viability of untreated control cells was set as 100%.

Row | Structure (SMILES) | viability at 48 h, 10 µM | viability at 48 h, 20 µM | viability at 48 h, 50 µM | viability at 48 h, 100 µM | viability at 48 h, 200 µM | viability at 48 h, 500 µM | viability at 48 h, 1000 µM
7 | COc1cc([N+](=O)[O-])ccc1OCC(O)CN1CCN(CCO)CC1 (stereo not drawn) [Compound 1, 1-(4-(2-Hydroxyethyl)piperazin-1-yl)-3-(2-methoxy-4-nitrophenoxy)propan-2-ol] | 114 ± 14% | 110 ± 11% | 111 ± 15% | 101 ± 17% | 102 ± 21% | 97 ± 22% | 60 ± 10%
8 | COc1ccc(OCC(O)CN2CCN(CCO)CC2)c([N+](=O)[O-])c1 (stereo not drawn) [Compound 2, 1-(4-(2-Hydroxyethyl)piperazin-1-yl)-3-(4-methoxy-2-nitrophenoxy)propan-2-ol] | 102 ± 12% | 100 ± 11% | 99 ± 6% | 98 ± 8% | 99 ± 11% | 93 ± 3% | 78 ± 4%
9 | O=[N+]([O-])c1ccc(OCC(O)CN2CCN(CCO)CC2)c(F)c1 (stereo not drawn) [Compound 3, 1-(4-(2-Hydroxyethyl)piperazin-1-yl)-3-(2-fluoro-4-nitrophenoxy)propan-2-ol] | 98 ± 5% | 95 ± 14% | 90 ± 9% | 92 ± 6% | 92 ± 5% | 92 ± 9% | 81 ± 11%

System: PBMCs
Assay: in vitro
Settings: male, human, 48 h
Method: as §3, §4, §5

Row | Structure (SMILES) | Optimal non-toxic concentration (PBMC viability not below 100% at 0.05 significance level and higher than 90%)
10 | COc1cc([N+](=O)[O-])ccc1OCC(O)CN1CCN(CCO)CC1 (stereo not drawn) [Compound 1, 1-(4-(2-Hydroxyethyl)piperazin-1-yl)-3-(2-methoxy-4-nitrophenoxy)propan-2-ol] | 500 µM
11 | COc1ccc(OCC(O)CN2CCN(CCO)CC2)c([N+](=O)[O-])c1 (stereo not drawn) [Compound 2, 1-(4-(2-Hydroxyethyl)piperazin-1-yl)-3-(4-methoxy-2-nitrophenoxy)propan-2-ol] | 500 µM
12 | O=[N+]([O-])c1ccc(OCC(O)CN2CCN(CCO)CC2)c(F)c1 (stereo not drawn) [Compound 3, 1-(4-(2-Hydroxyethyl)piperazin-1-yl)-3-(2-fluoro-4-nitrophenoxy)propan-2-ol] | 500 µM

System: MOLT-4 cells
Assay: Annexin V/PI flow cytometry viability of irradiated MOLT-4 cells
Type: cell-based, human
Settings: Homo sapiens, MOLT-4; 100 μM, 2 h pretreatment, 2 Gy, 24 h; representative histogram Fig. 5A (2 Gy alone 26 %); read-out: Viable (annexin V/PI negative) MOLT-4 cells, compound + 2 Gy
Method: Consequently, we investigated whether the pre-application of these substances can augment the survival of MOLT-4 cells after irradiation exposure. The radioprotective investigation utilized a leukemia MOLT-4 cell model of hematopoietic origin with flow cytometric quantification of cell viability via annexin V/propidium iodide staining.
In the following step, at 24 h after irradiation, MOLT-4 cell viability and cell death were determined by flow cytometry using an Alexa Fluor® 488 annexin V/Dead Cell Apoptosis kit (Life Technologies, Grand Island, NY, USA) following the manufacturer's instructions. The Alexa Fluor®488 annexin V/Dead Cell Apoptosis kit employs the property of Alexa Fluor®488 conjugated to annexin V to bind to phosphatidylserine in the presence of Ca^2+; and the ability of propidium iodide to enter cells with damaged cell membranes and bind to DNA. For each sample, a minimum of 20 000 events were acquired using a CytoFLEX LX flow cytometer (Beckman Coulter, Miami, FL, USA). List mode data were analyzed using Kaluza Analysis 2.1 software (Beckman Coulter, Miami, FL, USA).

Row | Structure (SMILES) | viability at 100 µM
13 | COc1cc([N+](=O)[O-])ccc1OCC(O)CN1CCN(CCO)CC1 (stereo not drawn) [Compound 1, 1-(4-(2-Hydroxyethyl)piperazin-1-yl)-3-(2-methoxy-4-nitrophenoxy)propan-2-ol] | 35%
14 | COc1ccc(OCC(O)CN2CCN(CCO)CC2)c([N+](=O)[O-])c1 (stereo not drawn) [Compound 2, 1-(4-(2-Hydroxyethyl)piperazin-1-yl)-3-(4-methoxy-2-nitrophenoxy)propan-2-ol] | 35%
15 | O=[N+]([O-])c1ccc(OCC(O)CN2CCN(CCO)CC2)c(F)c1 (stereo not drawn) [Compound 3, 1-(4-(2-Hydroxyethyl)piperazin-1-yl)-3-(2-fluoro-4-nitrophenoxy)propan-2-ol] | 31%

Same assay, conditions: Homo sapiens, MOLT-4; 200 μM, 2 h pretreatment, 2 Gy, 24 h; representative histogram Fig. 6A (2 Gy alone 27 %); read-out: Viable (annexin V/PI negative) MOLT-4 cells, compound + 2 Gy

Row | Structure (SMILES) | viability at 200 µM
16 | COc1cc([N+](=O)[O-])ccc1OCC(O)CN1CCN(CCO)CC1 (stereo not drawn) [Compound 1, 1-(4-(2-Hydroxyethyl)piperazin-1-yl)-3-(2-methoxy-4-nitrophenoxy)propan-2-ol] | 36%
17 | COc1ccc(OCC(O)CN2CCN(CCO)CC2)c([N+](=O)[O-])c1 (stereo not drawn) [Compound 2, 1-(4-(2-Hydroxyethyl)piperazin-1-yl)-3-(4-methoxy-2-nitrophenoxy)propan-2-ol] | 36%
18 | O=[N+]([O-])c1ccc(OCC(O)CN2CCN(CCO)CC2)c(F)c1 (stereo not drawn) [Compound 3, 1-(4-(2-Hydroxyethyl)piperazin-1-yl)-3-(2-fluoro-4-nitrophenoxy)propan-2-ol] | 35%
